Experimental data reported in patent US9278912B2, “C13-hydroxy derivatives of oleanolic acid and methods of use thereof” (priority 2012, dated 2016).

Tested on: IFNγ-induced NO production in RAW264.7 mouse macrophages
Test: Suppression of IFNγ-induced NO production (Nitric Oxide Production and Cell Viability Assay)
Type: cell-based
Details: RAW264.7 cells, 2 h pretreatment, then IFNγ 24 h, Griess reagent, normalized to cell viability (WST-1)
Method: Assay results for the suppression of IFNγ-induced NO production are shown for several of the compounds of the present invention in Table 1 below. In the right-hand column of this table under the RAW264.7 heading, the results are compared to those of bardoxolone methyl (RTA 402, CDDO-Me). Details regarding this assay are provided in the Examples section below. Nitric Oxide Production and Cell Viability Assay. […] On the next day, cells were pretreated with DMSO or drug (0-200 nM dose range) for 2 hours, and then treated with recombinant mouse IFNγ (R&D Systems) for 24 hours. Nitric Oxide concentration in media was determined using the Griess reagent system (Promega). Cell viability was determined using WST-1 reagent (Roche). IC50 values were determined based on the suppression of IFNγ induced Nitric Oxide production normalized to cell viability.

## COC(=O)[C@]12CCC(C)(C)C[C@H]1[C@@]1(O)C(=O)C=C3[C@@]4(C)C=C(C#N)C(=O)C(C)(C)[C@@H]4CC[C@@]3(C)[C@]1(C)CC2 [TX63421]
  IC50: 2.3 nM

## CCOC(=O)[C@]12CCC(C)(C)C[C@H]1[C@@]1(O)C(=O)C=C3[C@@]4(C)C=C(C#N)C(=O)C(C)(C)[C@@H]4CC[C@@]3(C)[C@]1(C)CC2 [TX63469]
  IC50: 2.2 nM

## CCCCC1O[C@]23C(=O)C=C4[C@@]5(C)C=C(C#N)C(=O)C(C)(C)[C@@H]5CC[C@@]4(C)[C@]2(C)CC[C@]12CCC(C)(C)C[C@H]23 (stereo partly shown) [TX63484]
  IC50: 37 nM

## CC1(C)CC[C@]2(CO)CC[C@]3(C)[C@](O)([C@H](O)C=C4[C@@]5(C)C=C(C#N)C(=O)C(C)(C)[C@@H]5CC[C@]43C)[C@@H]2C1 [TX63489]
  IC50: 61 nM

## CC1(C)CC[C@]2(CO)CC[C@@]3(C)[C@]4(C)CC[C@H]5C(C)(C)C(=O)C(C#N)=C[C@]5(C)C4=CC(=O)[C@]3(O)[C@@H]2C1 [TX63490]
  IC50: 1.5 nM

## CC(C)C1O[C@]23C(=O)C=C4[C@@]5(C)C=C(C#N)C(=O)C(C)(C)[C@@H]5CC[C@@]4(C)[C@]2(C)CC[C@]12CCC(C)(C)C[C@H]23 (stereo partly shown) [TX63496]
  IC50: 37 nM

## CC(=O)OC[C@]12CCC(C)(C)C[C@H]1[C@@]1(O)[C@H](OC(C)=O)C=C3[C@@]4(C)C=C(C#N)C(=O)C(C)(C)[C@@H]4CC[C@@]3(C)[C@]1(C)CC2 [TX63498]
  IC50: 24 nM

## CC(=O)OC[C@]12CCC(C)(C)C[C@H]1[C@@]1(O)C(=O)C=C3[C@@]4(C)C=C(C#N)C(=O)C(C)(C)[C@@H]4CC[C@@]3(C)[C@]1(C)CC2 [TX63499]
  IC50: 2.1 nM

## CC1(C)CC[C@]2(C(N)=O)CC[C@@]3(C)[C@]4(C)CC[C@H]5C(C)(C)C(=O)C(C#N)=C[C@]5(C)C4=CC(=O)[C@]3(O)[C@@H]2C1 [TX63530]
  IC50: 1.4 nM

## CCNC(=O)[C@]12CCC(C)(C)C[C@H]1[C@@]1(O)C(=O)C=C3[C@@]4(C)C=C(C#N)C(=O)C(C)(C)[C@@H]4CC[C@@]3(C)[C@]1(C)CC2 [TX63536]
  IC50: 5.6 nM
